Experiment in all cases: inhibition of tumour cell growth, NCI panel, 48 h
Experiment [1] deals with MOLT-4 leukemia.
Experiment [2] deals with HS 578T breast.
For experiment [3], the system named is NCI-H522 lung.
Experiment [4] deals with UACC-62 melanoma.
Experiment [5] deals with UO-31 renal.
Experiment [6] concerns HCT-116 colon.
Experiment [7] has as its system SN12C renal.
The subject of experiment [8] is SF-268 CNS.
The subject of experiment [9] is MDA-MB-435.
The test system of experiment [10] is EKVX NSCLC.

Where “and” joins values, the source holds several entries; their conditions need not be identical. Equal values may be shown once.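 Tested at 5 concentrations; 48 h exposure; 96-well plates; endpoints linearly interpolated, else capped at highest concentration. GI50 marks 50% less growth. TGI is the concentration that stops growth completely.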

For the compound `NC12CC3CC4C1CC1CC2C(C3)C4(N)C1`, the TGI in experiment [1], in experiment [2], in experiment [3], in [4], in experiment [5] and in experiment [6] was more than 100 µM throughout. The TGI in experiment [7], in experiment [8], in [9] and in experiment [10] was more than 100 µM each time.
With `CCOC(=O)C1(C(=O)OCC)CC(=O)[C@@]2(C1)OCC[C@H]1OC(=O)C[C@H]12`, the TGI in experiment [1], in [2], in experiment [3], in [4], in experiment [5] and in [6] was more than 100 µM each time. The TGI in experiment [7], in [8], in experiment [9] and in experiment [10] was more than 100 µM each time.
`CC(NC(=O)C(N)CC(=O)O)NC(=O)N1CCOCC1` (stereo not given): the TGI in experiment [1], in experiment [2], in experiment [3], in [4], in experiment [5] and in [6] was more than 100 µM throughout. The TGI in [7], in experiment [8], in experiment [9] and in [10] was more than 100 µM throughout.
For the compound `Nc1nc(N)c2nnn(C[C@H]3CC[C@@H](CO)C3)c2n1`, the TGI in [1], in experiment [2], in experiment [3], in [4], in experiment [5] and in [6] was more than 100 µM each time. The TGI in [7] was 93.3 µM; in experiment [8], more than 100 µM; in experiment [9], more than 100 µM; in experiment [10] it was more than 100 µM.
As for `COc1cc(/C=C/C(=O)N[C@@H]2C(=O)N3[C@@H]2SC(C)(C)[C@@H]3C(=O)O)cc(OC)c1OC`, the TGI in [1], in [2], in experiment [3], in experiment [4], in [5] and in experiment [6] was more than 100 µM throughout. The TGI in [7], in experiment [8], in experiment [9] and in experiment [10] was more than 100 µM throughout.
As for `CC1=C(C(=O)Nc2ccccc2)C(c2ccc(C)o2)C(C#N)=C(SCc2ccccc2)N1` (stereo not given), the TGI in [1], in experiment [2], in experiment [3], in experiment [4], in experiment [5] and in experiment [6] was more than 100 µM each time. For the same compound, the TGI was more than 100 µM in experiment [7], more than 100 µM in [8], 24.6 µM in [9] and more than 100 µM in experiment [10].
With `COc1cc2c(cc1OC)C(Cc1ccccc1CCCl)=NCC2`, the TGI in [1], in experiment [2], in experiment [3], in experiment [4], in experiment [5] and in [6] was more than 100 µM each time. The TGI in experiment [7], in experiment [8], in experiment [9] and in experiment [10] was more than 100 µM each time.
On to `COc1cc2c3c(n(Cc4ccccc4)c(=O)c2cc1OC)-c1ccccc1C3=O`, for which the TGI in [1], in experiment [2], in [3], in [4], in [5] and in [6] was more than 100 µM throughout. The TGI in experiment [7], in [8], in experiment [9] and in experiment [10] was more than 100 µM throughout.
For `O=C(N/N=C\c1ccc([N+](=O)[O-])cc1)c1ccccc1Nc1ccccc1C(=O)N/N=C/c1ccc([N+](=O)[O-])cc1`, the TGI in [1], in experiment [2], in experiment [4], in experiment [5], in experiment [6] and in experiment [7] was more than 100 µM in each case. In addition, the TGI in experiment [8], in experiment [9] and in experiment [10] was more than 100 µM each time.
Turning to `Cc1ccc([N+](=O)[O-])cc1S(=O)(=O)Nc1ccc(C2=NNC(c3cccs3)C2)cc1` (stereo not given), the TGI in experiment [1] is 92.9 µM; in experiment [2], more than 100 µM; in [3], more than 100 µM; in experiment [4] it was 34.1 µM; in [5] it was more than 100 µM; in [6] it was 63.5 µM. Moreover, the TGI is 90.6 µM in experiment [7], more than 100 µM in experiment [8], more than 100 µM in experiment [9] and 64.2 µM in [10].
For `Oc1ccc2ccccc2c1N=Nc1ccccn1`, the GI50 is 0.296 µM in [1]; 7.52 µM in experiment [2]; 1.97 µM in experiment [3]; 1.35 µM in experiment [4]; 0.306 µM in experiment [5]; 0.277 µM in experiment [6]. For the same compound, the GI50 in experiment [7] is 1.46 µM; in experiment [8], 0.554 µM; in experiment [9], 2.11 µM; in experiment [10] it was 0.449 µM. Besides, the TGI in experiment [1] is 12.5 µM; in experiment [2] it was more than 52.8 µM; in [3], 43 µM; in experiment [4], 8.22 µM; in experiment [5], more than 25.8 µM; in [6], 2.77 µM. Also, the TGI is more than 100 µM in experiment [7], more than 100 µM in experiment [8], more than 100 µM in experiment [9] and 43.4 µM in [10].
As for `CCOC(=O)C(C)(C)/C=C\C(Cl)=C(Cl)Cl`, the TGI in [1], in experiment [2], in experiment [3], in [4], in experiment [5] and in experiment [6] was more than 100 µM each time. Besides, the TGI in experiment [7], in [8], in experiment [9] and in experiment [10] was more than 100 µM in each case.
For `O=c1c(O)c(-c2cc(O)c(O)cc2O)oc2cc(O)c(C3OC(CO)C(O)C(O)C3O)c(O)c12` (stereo not given), the TGI in experiment [1], in experiment [2], in experiment [3], in experiment [4], in [5] and in [6] was more than 100 µM throughout. Besides, the TGI in [7], in [8], in experiment [9] and in experiment [10] was more than 100 µM each time.
As to `O=S(=O)(O)c1ccc2c(N=Nc3ccccc3Cl)c(O)ccc2c1`, the TGI in [1], in experiment [2], in [3], in experiment [4], in experiment [5] and in [6] was more than 100 µM each time. Moreover, the TGI in [7], in experiment [8], in experiment [9] and in [10] was more than 100 µM each time.
Consider `COc1cc(C(=O)Nc2c3ccccc3nc3ccccc23)cc(OC)c1OC`, for which the TGI in experiment [1], in experiment [2], in experiment [3], in experiment [4], in experiment [5] and in experiment [6] was more than 100 µM throughout. Further, the TGI was more than 100 µM in experiment [7], more than 82 µM in experiment [8], more than 100 µM in experiment [9] and more than 100 µM in experiment [10].
For the compound `Cc1ccc(/C=N/Nc2nncc3ccccc23)s1`, the TGI in [1], in [2], in [3], in experiment [4], in [5] and in [6] was more than 100 µM each time. In addition, the TGI in [7], in [8], in [9] and in [10] was more than 100 µM throughout.
Consider `CC(=O)N1N=C(N)CC1=O`, for which the TGI in experiment [1], in experiment [2], in experiment [3], in experiment [4], in experiment [5] and in [6] was more than 100 µM throughout. For the same compound, the TGI in experiment [7], in experiment [8], in [9] and in experiment [10] was more than 100 µM in each case.
For the compound `O=C(/C=C/c1cccs1)c1cccc(C(=O)/C=C/c2cccs2)n1`, the TGI in experiment [1] is 6.54 µM; in experiment [2], more than 94.8 µM; in experiment [3], more than 100 µM; in [4], more than 100 µM; in experiment [5] it was more than 100 µM; in [6] it was 11.3 µM. The TGI in experiment [7] was more than 58.8 µM; in experiment [8], more than 68.5 µM; in experiment [9], more than 100 µM; in experiment [10], more than 100 µM.
Turning to `Clc1ccc2c(NCCNc3ccnc4cc(Cl)ccc34)ccnc2c1`, the TGI in experiment [1] is 35.3 µM; in experiment [2], more than 100 µM; in [3], 35.2 µM; in experiment [4], 33.1 µM; in [5], 29.1 µM; in experiment [6] it was 33.1 µM. Further, the TGI was determined as 33.4 µM in [7], 70.6 µM in experiment [8], 32 µM in experiment [9] and 41.4 µM in [10].
`O=C1C=C(N2CC2)C(=O)C=C1N1CC1`: the GI50 in experiment [1] is 0.00197 µM; in [3], 0.00826 µM; in experiment [4], 0.01 µM; in experiment [7], 0.0307 µM; in experiment [8] it was 0.0109 µM; in experiment [9] it was 0.0206 µM. In experiment [10], the GI50 was 0.404 µM and 2.65 µM. In addition, the TGI was 0.248 µM in experiment [1]; 8.14 µM in experiment [2]; 0.0727 µM and 0.144 µM in experiment [3]; 0.229 µM in experiment [5]; 0.278 µM and 1.14 µM in [7]; 0.299 µM and 1.5 µM in experiment [8]. For the same compound, the TGI in experiment [10] amounted to 4.84 µM.
As to `COC(=O)[C@H](Cc1ccccc1)NP(=O)(O)OCC1OC(n2cc(C)c(=O)[nH]c2=O)CC1N=[N+]=[N-]` (stereo not given in full), the TGI in [1], in experiment [2], in experiment [3], in experiment [5], in experiment [6] and in [7] was more than 100 µM each time. The TGI in [8], in experiment [9] and in experiment [10] was more than 100 µM throughout.
For `O=C1CCCCC[C@]12SC[C@H]1CON=C12`, the TGI in experiment [1] was more than 100 µM; in experiment [2], more than 100 µM; in experiment [3] it was 69.6 µM; in experiment [4], 71.7 µM; in experiment [5], more than 100 µM; in experiment [6] it was more than 100 µM. The values for the TGI in [7], in [9] and in experiment [10] were 57.6 µM, 39.5 µM and more than 100 µM, respectively.
Regarding `CC(=N/NC(=S)N1CCCCC1)/C(C)=N\NC(=S)N1CCCCC1`, the TGI in experiment [1] is more than 100 µM; in [2], 5.76 µM; in experiment [3], 4.74 µM; in [5] it was 2.79 µM; in experiment [7], 3.2 µM; in experiment [8], 3.45 µM. For the same compound, the TGI in [9] is 3.79 µM; in [10], 3.11 µM.
`CC1(C)C(=O)C2(OS(=O)(=O)C(F)(F)F)CCC1C2` (stereo not given): the TGI in experiment [1], in experiment [2], in experiment [4], in [5], in experiment [6] and in [7] was more than 100 µM throughout. Further, the TGI in [8], in [9] and in experiment [10] was more than 100 µM each time.
Turning to `OCCN=C1c2ccccc2C2C(c3ccccc31)C1c3ccccc3C(=NCCO)c3ccccc3C21` (stereo not given), the TGI in experiment [1] stood at 27.6 µM; in experiment [2], 45.7 µM; in experiment [4], 37.5 µM; in [5], 32.6 µM; in [6] it was 30.3 µM; in experiment [7], 55.8 µM. The TGI in [8] was more than 100 µM; in [9], 40.9 µM; in experiment [10], more than 100 µM.
Take `O=C(OCC1CCCN2CCCCC12)c1ccncc1` (stereo not given): the TGI in experiment [1], in [2], in experiment [4], in experiment [5], in experiment [6] and in experiment [7] was more than 100 µM each time. Moreover, the TGI in experiment [8], in [9] and in experiment [10] was more than 100 µM each time.
Consider `CSc1nncc2[nH]cnc12`, for which the TGI in experiment [1], in experiment [2], in experiment [4], in [5], in [6] and in experiment [7] was more than 100 µM each time. The TGI in [8], in [9] and in experiment [10] was more than 100 µM in each case.

These data come from PubChem BioAssay (NCI).
